Source: ChEMBL document CHEMBL1201862, “PubChem BioAssay data set” (2004)
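The compound was tested at five concentrations on cells cultured in 96-well plates, with a 48-hour exposure period. Here, GI50 denotes the concentration required for 50% inhibition of growth.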 Calls of active or inactive are those of the source. Rule as the data show it: active = GI50 up to about 1.1 µM and inactive = higher.

How the values were obtained:
Assay in all cases: DTP human tumour cell line panel, 48 h
[1] = system: UO-31
[2] = system: CAKI-1
[3] = system: RXF 393
[4] = system: TK-10
[5] = system: MCF7
[6] = system: OVCAR-5
[7] = system: SK-MEL-28
[8] = system: SF-539
[9] = system: PC-3
[10] = system: MDA-MB-231
[11] = system: MDA-N
[12] = system: KM12
[13] = system: ACHN
[14] = system: NCI/ADR-RES
[15] = system: SK-OV-3
[16] = system: NCI-H522
[17] = system: HOP-92
[18] = system: SN12C
[19] = system: SW-620
[20] = system: HCC 2998

Measured: GI50

Cc1ncc([N+](=O)[O-])n1CCNS(=O)(=O)CCCn1ccnc1[N+](=O)[O-]
inactive: [1] > 100 µM | [2] > 100 µM | [3] > 100 µM | [4] > 100 µM | [5] > 100 µM | [6] > 100 µM | [7] > 100 µM | [8] > 100 µM | [9] > 100 µM | [10] > 100 µM | [11] > 100 µM | [12] > 100 µM | [13] > 100 µM | [14] > 100 µM | [15] > 100 µM | [16] > 100 µM | [17] > 100 µM | [18] > 100 µM | [19] > 100 µM

CC(=O)N1C(=O)/C(=C\C(=O)c2ccc([N+](=O)[O-])cc2)c2ccccc21
inactive: [1] 19 µM | [2] 22.5 µM | [3] 29.1 µM | [4] 13.1 µM | [20] 19.3 µM | [5] 21.3 µM | [6] 54.2 µM | [8] 14.4 µM | [9] 21.8 µM | [10] 35.3 µM | [11] 18.8 µM | [12] 19.6 µM | [13] 15.3 µM | [14] 44.4 µM | [15] > 100 µM | [16] 15.7 µM | [18] 16.8 µM

O=C(c1ccccc1)c1ccc2[nH]c(-c3c(Cl)c(Cl)c(Cl)c(Cl)c3C(=O)N/N=C\C=C\c3ccccc3)nc2c1
inactive: [1] 39.5 µM | [2] 77.4 µM | [3] 21.8 µM | [4] 86.9 µM | [5] 20.7 µM | [6] > 100 µM | [7] 51.3 µM | [8] 61 µM | [9] 42.3 µM | [10] 22.6 µM | [11] 32.1 µM | [12] 61.4 µM | [13] 19.8 µM | [14] > 100 µM | [15] > 100 µM | [16] 26.9 µM | [17] 41.1 µM | [18] 31.3 µM | [19] 54.1 µM

COc1cc(C[S+]([O-])c2ccc(O)cc2)cc(OC)c1OC (configuration not stated)
inactive: [1] 66.2 µM | [2] > 100 µM | [3] > 100 µM | [4] > 100 µM | [5] > 100 µM | [6] > 100 µM | [7] > 100 µM | [8] > 100 µM | [9] > 100 µM | [10] > 100 µM | [11] > 100 µM | [12] > 100 µM | [13] > 100 µM | [14] > 100 µM | [15] > 100 µM | [16] > 100 µM | [17] > 100 µM | [18] > 100 µM | [19] > 100 µM

Cc1ccc(/N=N/c2c(O)ccc3ccccc23)cc1
inactive: [1] > 100 µM | [2] > 100 µM | [3] > 100 µM | [4] > 100 µM | [6] > 100 µM | [7] > 100 µM | [9] 83 µM | [10] > 100 µM | [11] > 100 µM | [12] 98.6 µM | [13] > 100 µM | [14] > 100 µM | [15] > 100 µM | [16] > 100 µM | [17] > 100 µM | [18] > 100 µM | [19] 63.4 µM

CC(=O)NC(C)(C)C1CCC(C)=C(c2ccccc2)C1 (configuration not stated)
inactive: [1] > 100 µM | [4] > 100 µM | [20] > 100 µM | [5] > 100 µM | [6] > 100 µM | [7] > 100 µM | [8] > 100 µM | [9] > 100 µM | [10] 55.8 µM | [11] > 100 µM | [12] > 100 µM | [15] > 100 µM | [16] 88.7 µM | [17] 19.5 µM | [18] > 100 µM | [19] > 100 µM

C(=C\c1ccccc1)/Cn1nc(-c2ccccc2)nc1-c1cnccn1
inactive: [1] > 100 µM | [3] > 100 µM | [4] > 100 µM | [20] > 100 µM | [5] > 100 µM | [6] > 100 µM | [7] > 100 µM | [8] > 100 µM | [9] > 100 µM | [10] > 100 µM | [11] > 100 µM | [12] > 10 µM | [15] 66.7 µM | [16] > 100 µM | [17] 35.9 µM | [18] > 100 µM | [19] > 100 µM

Cc1nc2ccccc2c(=O)n1NC(=O)c1ccccn1
inactive: [1] > 100 µM | [3] > 100 µM | [4] > 100 µM | [20] > 100 µM | [7] > 100 µM | [8] > 100 µM | [9] > 100 µM | [10] > 100 µM | [11] > 100 µM | [12] > 100 µM | [13] > 100 µM | [14] > 100 µM | [15] > 100 µM | [16] > 100 µM | [17] > 100 µM | [18] > 100 µM | [19] > 100 µM

NC(CNO)C(=O)O (configuration not stated)
inactive: [1] > 100 µM | [2] > 100 µM | [3] > 100 µM | [4] > 100 µM | [5] > 100 µM | [6] > 100 µM | [7] > 100 µM | [8] > 100 µM | [9] > 100 µM | [10] > 100 µM | [11] > 100 µM | [12] > 100 µM | [13] > 100 µM | [14] > 100 µM | [15] > 100 µM | [16] > 100 µM | [17] > 100 µM | [18] > 100 µM | [19] > 100 µM

Cn1c(=O)c2c(nc3[nH]c(=O)c(Br)cn32)n(C)c1=O
inactive: [1] > 100 µM | [2] > 100 µM | [3] > 100 µM | [4] > 100 µM | [20] > 100 µM | [6] > 100 µM | [7] > 100 µM | [8] > 100 µM | [9] > 100 µM | [10] > 100 µM | [11] > 100 µM | [12] > 100 µM | [13] > 100 µM | [14] > 100 µM | [15] > 100 µM | [16] > 100 µM | [17] > 100 µM | [18] > 100 µM | [19] > 100 µM

O=C(O)CC(NC(=O)Nc1ccc([N+](=O)[O-])cc1)C(=O)Nc1ccc([N+](=O)[O-])cc1 (configuration not stated)
inactive: [1] > 100 µM | [2] > 100 µM | [3] > 100 µM | [4] > 100 µM | [20] > 100 µM | [5] > 100 µM | [6] > 100 µM | [7] > 100 µM | [8] > 100 µM | [9] > 100 µM | [10] > 100 µM | [11] > 100 µM | [12] > 100 µM | [13] > 100 µM | [14] > 100 µM | [15] > 100 µM | [16] > 100 µM | [19] > 100 µM
